From US20240384268A1, “Oligonucleotides” (Hudson Institute of Medical Research, priority 2021, published 2024)

Molecular target: T1, human TLR7 (Homo sapiens, UniProt Q9NYK1)
T1 construct: HA; host or cells: 293XL-hTLR7-HA (HEK293)
T1 sequence (Q9NYK1 27-1049): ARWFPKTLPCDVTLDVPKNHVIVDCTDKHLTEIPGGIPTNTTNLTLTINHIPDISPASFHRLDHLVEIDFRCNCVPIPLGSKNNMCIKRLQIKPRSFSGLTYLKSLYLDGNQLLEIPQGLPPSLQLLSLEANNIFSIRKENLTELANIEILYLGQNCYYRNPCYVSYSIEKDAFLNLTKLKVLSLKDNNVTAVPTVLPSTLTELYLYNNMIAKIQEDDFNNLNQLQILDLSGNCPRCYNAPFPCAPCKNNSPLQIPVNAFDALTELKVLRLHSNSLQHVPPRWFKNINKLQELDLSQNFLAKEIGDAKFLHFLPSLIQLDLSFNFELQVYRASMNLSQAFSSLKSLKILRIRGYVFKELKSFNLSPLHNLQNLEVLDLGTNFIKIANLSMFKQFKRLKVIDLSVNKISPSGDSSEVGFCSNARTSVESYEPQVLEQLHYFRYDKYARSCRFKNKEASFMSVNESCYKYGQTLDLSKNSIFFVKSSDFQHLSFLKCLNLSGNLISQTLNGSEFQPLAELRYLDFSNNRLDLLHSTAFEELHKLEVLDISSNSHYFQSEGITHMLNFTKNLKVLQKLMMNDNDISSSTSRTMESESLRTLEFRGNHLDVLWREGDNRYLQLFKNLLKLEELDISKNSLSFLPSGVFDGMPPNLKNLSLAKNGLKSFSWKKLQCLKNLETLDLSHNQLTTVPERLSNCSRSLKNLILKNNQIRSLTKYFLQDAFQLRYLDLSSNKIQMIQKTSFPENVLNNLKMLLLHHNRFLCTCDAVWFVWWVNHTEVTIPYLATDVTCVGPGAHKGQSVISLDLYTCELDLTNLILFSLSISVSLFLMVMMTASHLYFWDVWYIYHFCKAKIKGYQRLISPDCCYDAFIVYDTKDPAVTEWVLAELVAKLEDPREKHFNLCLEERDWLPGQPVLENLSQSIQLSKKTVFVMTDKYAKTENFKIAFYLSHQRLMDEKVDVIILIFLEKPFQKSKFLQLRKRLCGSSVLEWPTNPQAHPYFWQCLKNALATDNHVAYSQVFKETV
Assay: HEK-TLR7 NF-κB-luciferase reporter, R848 stimulation
Type: cell-based
Conditions: averaged NF-κB-Luciferase relative to R848 condition; for TLR7 100 nM: MOE-modified ASO at 100 nM; for TLR7 500 nM: MOE-modified ASO at 500 nM

Sequence	TLR7 100 nM	TLR7 500 nM
GTCCTTGCACGTGGCTTCGT (antisense; 2'-MOE modified, pattern not given here) [EGFR-1013 MOE]	0.216	0.088
GTCTTGGCTTCGTGGAGCAG (antisense; 2'-MOE modified, pattern not given here) [MB21D1-520 MOE]	0.372	0.095
GTGTCCTTGCACGTGGCTTC (antisense; 2'-MOE modified, pattern not given here) [EGFR-1015 MOE]	0.377	0.212
GTGTCTTCATCGGCCCTGCC (antisense; 2'-MOE modified, pattern not given here) [CAMSAP1-2113 MOE]	0.371	0.132
TAGGCACTTTGCCTCCTTCT (antisense; 2'-MOE modified, pattern not given here) [EGFR-2859 MOE]	0.455	0.205
TAGTCAAGGGCATATCCTAC (antisense; 2'-MOE modified, pattern not given here) [HPRT-732 MOE]	0.423	0.191
TCAAAGGACTGAGGAAAGGG (antisense; 2'-MOE modified, pattern not given here) [CAMSAP1-6273 MOE]	0.397	0.189
TCCAACACTTCGTGGGGTCC (antisense; 2'-MOE modified, pattern not given here) [HPRT-667 MOE]	0.929	0.578
TCGCACTTCAGTCTGAGCAG (antisense; 2'-MOE modified, pattern not given here) [MB21D1-719 MOE]	0.574	0.241
TGTCCTTGCACGTGGCTTCG (antisense; 2'-MOE modified, pattern not given here) [EGFR-1014 MOE]	0.029	0.057
TGTCTTCATCGGCCCTGCCT (antisense; 2'-MOE modified, pattern not given here) [CAMSAP1-2112 MOE]	0.396	0.185
TGTGATGGCCTCCCATCTCC (antisense; 2'-MOE modified, pattern not given here) [HPRT-332 MOE]	0.312	0.238
TTCTGCAGCTTCCTTGTCCT (antisense; 2'-MOE modified, pattern not given here) [CTNN2B-2136 MOE]	0.183	0.059
TTGCACACTTCGTACCCAAA (antisense; 2'-MOE modified, pattern not given here) [CAMSAP1-4915 MOE]	0.418	0.233
TTGCCATGCTGGCTCGGACT (antisense; 2'-MOE modified, pattern not given here) [CAMSAP1-2584 MOE]	0.445	0.138
TTGGCTCGGCTTGCCTACTT (antisense; 2'-MOE modified, pattern not given here) [CAMSAP1-5594 MOE]	0.523	0.204
